Counter-ions that a name gives are not always drawn.
The compounds below were run against T1, human PAR-2 (hPAR-2) receptor (Homo sapiens, UniProt P55085) (assay: In vitro human PAR-2 functional antagonist activity using calcium assays). Details: hPAR-2 endogenously expressed in HEK-293 cells; stimulated by 2-Furoyl-LIGRLO-NH2 peptide; Fluo4AM intracellular calcium, FLIPR Tetra.
T1 construct: expressed in HEK-293 cells in an endogenous manner; endogenous in cells; host or cells: HEK-293
T1 sequence (P55085 26-397): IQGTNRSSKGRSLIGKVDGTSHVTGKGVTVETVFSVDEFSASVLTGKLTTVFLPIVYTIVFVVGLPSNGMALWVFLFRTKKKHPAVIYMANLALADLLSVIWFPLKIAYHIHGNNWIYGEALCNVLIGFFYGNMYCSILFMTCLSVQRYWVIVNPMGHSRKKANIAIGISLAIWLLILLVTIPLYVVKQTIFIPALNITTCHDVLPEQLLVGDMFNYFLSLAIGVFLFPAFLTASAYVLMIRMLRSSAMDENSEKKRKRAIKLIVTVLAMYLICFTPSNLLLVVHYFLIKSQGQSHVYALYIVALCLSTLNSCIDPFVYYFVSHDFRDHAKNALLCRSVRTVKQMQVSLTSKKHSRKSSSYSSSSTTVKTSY
Type: cell-based
Protocol: Example 283: In Vitro Human PAR-2 Functional Antagonist Activity Using Calcium Assays
Examples of the present invention were tested successively for their agonist and antagonist activities on human PAR-2 (hPAR-2) receptor expressed in HEK-293 cells in an endogenous manner. Compounds exert agonist activity if, by themselves in absence of the 2-Furoyl-LIGRLO-NH2 peptide (selective hPAR-2 agonist), they activate PAR-2; they exert antagonist activity if they decrease the action of the 2-Furoyl-LIGRLO-NH2 peptide on the receptor. The assay used to determine compound activity is based on calcium measurement.
Cell Culture: HEK-293 cells were maintained in Dulbecco's Modified Eagle's Medium supplemented with 10% Foetal Calf Serum, 1% Penicillin/Streptomycin at 37° C./5% CO2. Flasks for tests (F75) are seeded with 6e+06 cells 24 h before the experiment at 37° C./5% CO2.
Calcium assay: Receptor activity was detected by changes in intracellular calcium measured using the fluorescent Ca^2+ sensitive dye, Fluo4AM (Molecular Probes).
The day of the assay, medium was replaced by assay buffer (HBSS 1× (Gibco 14175-053), Hepes 20 mM, MgSO4-7H2O 1 mM, Na2CO3 3.3 mM, CaCl2—2H2O 2.6 mM, 0.5% bovine serum albumin (BSA), Probenecid 2.5 mM, 0.1 mg/mL Pluronic Acid) and complemented with 1 μM Fluo4AM and cells were incubated during 1:30 h at 37° C.
Cells were then detached, resuspended in assay buffer and seeded in 384 wells, transparent-flat bottom black walled plates (2e+04 cells per well). Plates were incubated at +22° C. for 20 min. Compounds stock solutions were prepared in 100% DMSO and dilutions in test buffer were carried out in polypropylene plates with a digital dispenser (D300e, Tecan). Compounds were added to the cells and intracellular Ca^2+ measurements were collected at the same time on FLIPR Tetra® (Molecular Devices) with specific filters (Exc: 470-495 nm/Em: 515-575 nm).
Agonist and antagonist activities of compounds were consecutively evaluated on the same cell plate. Agonist activity was first measured after 10 min incubation with the compound alone. Then, cells were stimulated by an […] of the 2-Furoyl-LIGRLO-NH2 peptide and fluorescence was recorded for an additional 5 min. EC50 of the 2-Furoyl-LIGRLO-NH2 peptide was the concentration giving 80% of the maximal 2-Furoyl-LIGRLO-NH2 response. Agonist activities are evaluated in comparison to basal signals evoked by assay buffer or maximal 2-Furoyl-LIGRLO-NH2 response. […] Antagonist activities are evaluated in comparison to basal signals evoked by assay buffer or EC50 of 2-Furoyl-LIGRLO-NH2 alone.
In the case of `CC(C)(O)CNC(=O)c1ccc2c(n1)C(C)(C)CN2c1ccc(Cl)c(F)c1` [Example 52, 1-(4-chloro-3-fluorophenyl)-N-(2-hydroxy-2-methylpropyl)-3,3-dimethyl-2,3-dihydro-1H-pyrrolo[3,2-b]pyridine-5-carboxamide], the IC50 is reported as over 10000 nM.
`CCC1(C)CN(c2ccc(Cl)c(F)c2)c2ccc(C(=O)N3CCNC(=O)C3(C)C)nc21` (stereo not drawn) [Example 53, 4-(1-(4-chloro-3-fluorophenyl)-3-ethyl-3-methyl-2,3-dihydro-1H-pyrrolo[3,2-b]pyridine-5-carbonyl)-3,3-dimethylpiperazin-2-one] gave an IC50 of under 500 nM.
Work on `CCC1(C)CN(c2ccc(Cl)c(F)c2)c2ccc(C(=O)NC3(C(N)=O)CC3)nc21` (stereo not drawn) [Example 54, N-(1-carbamoylcyclopropyl)-1-(4-chloro-3-fluorophenyl)-3-ethyl-3-methyl-2,3-dihydro-1H-pyrrolo[3,2-b]pyridine-5-carboxamide] yielded an IC50 of 500 to 10000 nM.
`CC1(C)C(=O)NCCN1C(=O)c1ccc2c(n1)C1(CCOCC1)CN2c1ccc(Cl)c(F)c1` [Example 55, 4-(1′-(4-chloro-3-fluorophenyl)-1′,2,2′,3,5,6-hexahydrospiro[pyran-4,3′-pyrrolo[3,2-b]pyridine]-5′-carbonyl)-3,3-dimethylpiperazin-2-one] gave an IC50 of under 500 nM.
`Cc1cc(N2CCN(C(=O)c3ccc4c(n3)C3(CCOCC3)CN4c3ccc(Cl)c(F)c3)C(C)(C)C2)nc(C)c1C(=O)O` [Example 56, 6-(4-(1′-(4-chloro-3-fluorophenyl)-1′,2,2′,3,5,6-hexahydrospiro[pyran-4,3′-pyrrolo[3,2-b]pyridine]-5′-carbonyl)-3,3-dimethylpiperazin-1-yl)-2,4-dimethylnicotinic acid] showed an IC50 of under 500 nM.
For `CC1(C)C(=O)NCCN1C(=O)c1ccc2c(n1)C1(CC1)CN2c1ccc(Cl)c(F)c1` [Example 57, 4-(1′-(4-chloro-3-fluorophenyl)-1′,2′-dihydrospiro[cyclopropane-1,3′-pyrrolo[3,2-b]pyridine]-5′-carbonyl)-3,3-dimethylpiperazin-2-one], the IC50 was under 500 nM.
Work on `CC1(C)C(=O)NCCN1C(=O)c1ccc2c(n1)C1(CCOC1)CN2c1ccc(Cl)c(F)c1` (stereo not drawn) [Example 58, 4-(1′-(4-chloro-3-fluorophenyl)-1′,2′,4,5-tetrahydro-2H-spiro[furan-3,3′-pyrrolo[3,2-b]pyridine]-5′-carbonyl)-3,3-dimethylpiperazin-2-one] yielded an IC50 of under 500 nM.
`Cc1cc(N2CCN(C(=O)c3ccc4c(n3)C3(CCOC3)CN4c3ccc(Cl)c(F)c3)C(C)(C)C2)nc(C)c1C(=O)O` (stereo not drawn) [Example 60, 6-(4-(1′-(4-chloro-3-fluorophenyl)-1′,2′,4,5-tetrahydro-2H-spiro[furan-3,3′-pyrrolo[3,2-b]pyridine]-5′-carbonyl)-3,3-dimethylpiperazin-1-yl)-2,4-dimethylnicotinic acid hydrochloride] gave an IC50 of under 500 nM.
`CC1(C)CN(c2ccc(Cl)c(F)c2)c2ccc(C(=O)N3CCN(c4ccc(CC(=O)O)cn4)CC3(C)C)nc21` [Example 65, 2-(6-(4-(1-(4-chloro-3-fluorophenyl)-3,3-dimethyl-2,3-dihydro-1H-pyrrolo[3,2-b]pyridine-5-carbonyl)-3,3-dimethylpiperazin-1-yl)pyridin-3-yl)acetic acid] was tested, and the IC50 was under 500 nM.
Work on `CC1(C)CN(c2ccc(Cl)c(F)c2)c2ccc(C(=O)N3CCN(c4nncs4)CC3(C)C)nc21` [Example 67, (1-(4-chloro-3-fluorophenyl)-3,3-dimethyl-2,3-dihydro-1H-pyrrolo[3,2-b]pyridin-5-yl)(2,2-dimethyl-4-(1,3,4-thiadiazol-2-yl)piperazin-1-yl)methanone] yielded an IC50 of under 500 nM.
`Cc1nc(N2CCN(C(=O)c3ccc4c(n3)C(C)(C)CN4c3ccc(Cl)c(F)c3)C(C)(C)C2)sc1C(=O)O` [Example 69, 2-(4-(1-(4-chloro-3-fluorophenyl)-3,3-dimethyl-2,3-dihydro-1H-pyrrolo[3,2-b]pyridine-5-carbonyl)-3,3-dimethylpiperazin-1-yl)-4-methylthiazole-5-carboxylic acid] was tested, and the IC50 was under 500 nM.
`Cc1nc(N2CCN(C(=O)c3ccc4c(n3)C(C)(C)CN4c3ccc(Cl)c(F)c3)C(C)(C)C2)sc1CC(=O)O` [Example 71, 2-(2-(4-(1-(4-chloro-3-fluorophenyl)-3,3-dimethyl-2,3-dihydro-1H-pyrrolo[3,2-b]pyridine-5-carbonyl)-3,3-dimethylpiperazin-1-yl)-4-methylthiazol-5-yl)acetic acid] was tested, and the IC50 was under 500 nM.
In the case of `Cc1sc(N2CCN(C(=O)c3ccc4c(n3)C(C)(C)CN4c3ccc(Cl)c(F)c3)C(C)(C)C2)nc1C(=O)O` [Example 73, 2-(4-(1-(4-chloro-3-fluorophenyl)-3,3-dimethyl-2,3-dihydro-1H-pyrrolo[3,2-b]pyridine-5-carbonyl)-3,3-dimethylpiperazin-1-yl)-5-methylthiazole-4-carboxylic acid hydrochloride], the IC50 is reported as under 500 nM.
`CC1(C)CN(c2ccc(Cl)c(F)c2)c2ccc(C(=O)N3CCNC(=O)CC3(C)C)nc21` [Example 74, 1-(1-(4-chloro-3-fluorophenyl)-3,3-dimethyl-2,3-dihydro-1H-pyrrolo[3,2-b]pyridine-5-carbonyl)-7,7-dimethyl-1,4-diazepan-5-one] showed an IC50 of under 500 nM.
For `CC1(C)CN(c2ccc(Cl)c(F)c2)c2ccc(C(=O)N3CCC4(CCNC4=O)CC3)nc21` [Example 75, 8-(1-(4-chloro-3-fluorophenyl)-3,3-dimethyl-2,3-dihydro-1H-pyrrolo[3,2-b]pyridine-5-carbonyl)-2,8-diazaspiro[4.5]decan-1-one], the IC50 was 500 to 10000 nM.
`CC1(C)CN(c2ccc(Cl)c(F)c2)c2ccc(C(=O)N3CCC4(CC3)CNC(=O)C4)nc21` [Example 76, 8-(1-(4-chloro-3-fluorophenyl)-3,3-dimethyl-2,3-dihydro-1H-pyrrolo[3,2-b]pyridine-5-carbonyl)-2,8-diazaspiro[4.5]decan-3-one] showed an IC50 of 500 to 10000 nM.
`CC1(C)CN(c2ccc(Cl)c(F)c2)c2ccc(C(=O)N3CCC(N4CCNC4=O)CC3)nc21` [Example 77, 1-(1-(1-(4-chloro-3-fluorophenyl)-3,3-dimethyl-2,3-dihydro-1H-pyrrolo[3,2-b]pyridine-5-carbonyl)piperidin-4-yl)imidazolidin-2-one] showed an IC50 of 500 to 10000 nM.
Compound `CC1(C)CN(c2ccc(Cl)c(F)c2)c2ccc(C(=O)N3CCN(c4nc(C(F)(F)F)c(C(=O)O)s4)CC3(C)C)nc21` [Example 79, 2-(4-(1-(4-chloro-3-fluorophenyl)-3,3-dimethyl-2,3-dihydro-1H-pyrrolo[3,2-b]pyridine-5-carbonyl)-3,3-dimethylpiperazin-1-yl)-4-(trifluoromethyl)thiazole-5-carboxylic acid] has an IC50 of under 500 nM.
Compound `CN(C)C(=O)c1csc(N2CCN(C(=O)c3ccc4c(n3)C(C)(C)CN4c3ccc(Cl)c(F)c3)C(C)(C)C2)n1` [Example 80, 2-(4-(1-(4-chloro-3-fluorophenyl)-3,3-dimethyl-2,3-dihydro-1H-pyrrolo[3,2-b]pyridine-5-carbonyl)-3,3-dimethylpiperazin-1-yl)-N,N-dimethylthiazole-4-carboxamide] has an IC50 of under 500 nM.
In the case of `CC1(C)CN(c2ccc(Cl)c(F)c2)c2ccc(C(=O)N3CCN(c4nc(C(=O)N5CCC(O)CC5)cs4)CC3(C)C)nc21` [Example 81, (1-(4-chloro-3-fluorophenyl)-3,3-dimethyl-2,3-dihydro-1H-pyrrolo[3,2-b]pyridin-5-yl)(4-(4-(4-hydroxypiperidine-1-carbonyl)thiazol-2-yl)-2,2-dimethylpiperazin-1-yl)methanone], the IC50 is reported as under 500 nM.
`CC1(C)CN(c2ccc(Cl)c(F)c2)c2ccc(C(=O)N3CCN(c4nc(C(=O)N5CCOCC5)cs4)CC3(C)C)nc21` [Example 82, (1-(4-chloro-3-fluorophenyl)-3,3-dimethyl-2,3-dihydro-1H-pyrrolo[3,2-b]pyridin-5-yl)(2,2-dimethyl-4-(4-(morpholine-4-carbonyl)thiazol-2-yl)piperazin-1-yl)methanone] gave an IC50 of under 500 nM.

Source: patent US20250320224A1 (DOMAIN THERAPEUTICS, priority 2022, published 2025)
